Test results taken from ChEMBL document CHEMBL4396913, “Synthesis and biological evaluation of hybrid quinolone-based quaternary ammonium antibacterial agents” (Eur J Med Chem, 2019).
In brackets after ≈: the same amount, converted by molar mass.

Columns and labels:
Staphylococcus aureus [1] = assay: Antibacterial activity against methicillin resistant Staphylococcus aureus 6347 cultured in MH medium assessed as reduction in bacterial growth incubated for 48 hrs by microbroth dilution method; assay type: functional; conditions: Staphylococcus aureus, 6347, 48 h
[2] = test system: Staphylococcus epidermidis; assay: Bactericidal activity against Staphylococcus epidermidis ATCC 14990 cultured in MH medium assessed as reduction in bacterial survival incubated for 48 hrs by microbroth dilution method; assay type: functional; conditions: ATCC 14990, 48 h
Escherichia coli [3] = assay: Bactericidal activity against Escherichia coli ATCC 8739 cultured in MH medium assessed as reduction in bacterial survival incubated for 48 hrs by microbroth dilution method; assay type: functional; conditions: ATCC 8739, 48 h
Bacillus spizizenii [4] = assay: Antibacterial activity against Bacillus subtilis ATCC 6633 cultured in MH medium assessed as reduction in bacterial growth incubated for 48 hrs by microbroth dilution method; assay type: functional; conditions: ATCC 6633, 48 h
Proteus vulgaris [5] = assay: Bactericidal activity against Proteus vulgaris NCTC 4635 cultured in MH medium assessed as reduction in bacterial survival incubated for 48 hrs by microbroth dilution method; assay type: functional; conditions: NCTC 4635, 48 h
Streptococcus pneumoniae [6] = assay: Antibacterial activity against Streptococcus pneumoniae cultured in MH medium assessed as reduction in bacterial growth incubated for 48 hrs by microbroth dilution method; assay type: functional
[7] = Lipophilicity, log k of the compound at 100 ug/ml by micellar electrokinetic chromatography; assay type: physicochemical
Enterococcus hirae [8] = assay: Antibacterial activity against Enterococcus hirae ATCC 1052 cultured in BHI medium assessed as reduction in bacterial growth incubated for 48 hrs by microbroth dilution method; assay type: functional; conditions: ATCC 1052, 48 h
Serratia marcescens [9] = assay: Bactericidal activity against Serratia marcescens ATCC 12795 cultured in MH medium assessed as reduction in bacterial survival incubated for 48 hrs by microbroth dilution method; assay type: functional; conditions: ATCC 12795, 48 h
Proteus vulgaris [10] = assay: Resistance index, ratio of MIC for Proteus vulgaris NCTC 4635 measured after 5 dilution steps to MIC for Proteus vulgaris NCTC 4635 measured after 48 hrs incubation by microbroth dilution method; assay type: functional
Staphylococcus aureus [11] = assay: Antibacterial activity against Staphylococcus aureus ATCC 6538 cultured in MH medium assessed as reduction in bacterial growth incubated for 48 hrs by microbroth dilution method; assay type: functional; conditions: ATCC 6538, 48 h
Proteus vulgaris [12] = assay: Antibacterial activity against Proteus vulgaris NCTC 4635 cultured in MH medium assessed as reduction in bacterial growth incubated for 48 hrs by microbroth dilution method; assay type: functional; conditions: NCTC 4635, 48 h
[13] = test system: Staphylococcus epidermidis; assay: Bactericidal activity against methicillin resistant Staphylococcus epidermidis ATCC 13199 cultured in MH medium assessed as reduction in bacterial survival incubated for 48 hrs by microbroth dilution method; assay type: functional; conditions: ATCC 13199, 48 h
Serratia marcescens [14] = assay: Antibacterial activity against Serratia marcescens ATCC 12795 cultured in MH medium assessed as reduction in bacterial growth incubated for 48 hrs by microbroth dilution method; assay type: functional; conditions: ATCC 12795, 48 h
[15] = test system: Staphylococcus epidermidis; assay: Antibacterial activity against Staphylococcus epidermidis ATCC 14990 cultured in MH medium assessed as reduction in bacterial growth incubated for 48 hrs by microbroth dilution method; assay type: functional; conditions: ATCC 14990, 48 h
Enterococcus hirae [16] = assay: Bactericidal activity against Enterococcus hirae ATCC 1052 cultured in BHI medium assessed as reduction in bacterial survival incubated for 48 hrs by microbroth dilution method; assay type: functional; conditions: ATCC 1052, 48 h
Pseudomonas aeruginosa [17] = assay: Antibacterial activity against Pseudomonas aeruginosa ATCC 9027 cultured in MH medium assessed as reduction in bacterial growth incubated for 48 hrs by microbroth dilution method; assay type: functional; conditions: ATCC 9027, 48 h
Staphylococcus aureus [18] = assay: Bactericidal activity against methicillin resistant Staphylococcus aureus 6347 cultured in MH medium assessed as reduction in bacterial survival incubated for 48 hrs by microbroth dilution method; assay type: functional; conditions: Staphylococcus aureus, 6347, 48 h
Staphylococcus aureus [19] = assay: Antibacterial activity against methicillin resistant Staphylococcus aureus N315 cultured in MH medium assessed as reduction in bacterial growth incubated for 48 hrs by microbroth dilution method; assay type: functional; conditions: N315, 48 h
Escherichia coli [20] = assay: Antibacterial activity against Escherichia coli ATCC 8739 cultured in MH medium assessed as reduction in bacterial growth incubated for 48 hrs by microbroth dilution method; assay type: functional; conditions: ATCC 8739, 48 h
Pseudomonas aeruginosa [21] = assay: Bactericidal activity against Pseudomonas aeruginosa ATCC 9027 cultured in MH medium assessed as reduction in bacterial survival incubated for 48 hrs by microbroth dilution method; assay type: functional; conditions: ATCC 9027, 48 h
[22] = test system: Staphylococcus epidermidis; assay: Antibacterial activity against methicillin resistant Staphylococcus epidermidis ATCC 13199 cultured in MH medium assessed as reduction in bacterial growth incubated for 48 hrs by microbroth dilution method; assay type: functional; conditions: ATCC 13199, 48 h
Streptococcus pneumoniae [23] = assay: Bactericidal activity against Streptococcus pneumoniae cultured in MH medium assessed as reduction in bacterial survival incubated for 48 hrs by microbroth dilution method; assay type: functional
Bacillus spizizenii [24] = assay: Bactericidal activity against Bacillus subtilis ATCC 6633 cultured in MH medium assessed as reduction in bacterial survival incubated for 48 hrs by microbroth dilution method; assay type: functional; conditions: ATCC 6633, 48 h
Staphylococcus aureus [25] = assay: Bactericidal activity against Staphylococcus aureus ATCC 6538 cultured in MH medium assessed as reduction in bacterial survival incubated for 48 hrs by microbroth dilution method; assay type: functional; conditions: ATCC 6538, 48 h
Staphylococcus aureus [26] = assay: Bactericidal activity against methicillin resistant Staphylococcus aureus N315 cultured in MH medium assessed as reduction in bacterial survival incubated for 48 hrs by microbroth dilution method; assay type: functional; conditions: N315, 48 h

## COc1c(N2CCNC(C)C2)c(F)cc2c(=O)c(C(=O)O)cn(C3CC3)c12 (stereo unspecified) [GATIFLOXACIN]
Staphylococcus aureus [1]
  MIC: 0.125 µg/mL (≈ 0.333 µM)
[2]
  MBC: 0.25 µg/mL (≈ 0.666 µM)
Escherichia coli [3]
  MBC: 0.032 µg/mL (≈ 0.0852 µM)
Bacillus spizizenii [4]
  MIC: 0.032 µg/mL (≈ 0.0852 µM)
Proteus vulgaris [5]
  MBC: 0.008 µg/mL (≈ 0.0213 µM)
Streptococcus pneumoniae [6]
  MIC: 1 µg/mL (≈ 2.66 µM)
[7]
  log K: 0.101
Enterococcus hirae [8]
  MIC: 8 µg/mL (≈ 21.3 µM)
Serratia marcescens [9]
  MBC: 0.5 µg/mL (≈ 1.33 µM)
Proteus vulgaris [10]
  Ratio: 32
Staphylococcus aureus [11]
  MIC: 0.25 µg/mL (≈ 0.666 µM)
Proteus vulgaris [12]
  MIC: 0.008 µg/mL (≈ 0.0213 µM)
[13]
  MBC: 0.063 µg/mL (≈ 0.168 µM)
Serratia marcescens [14]
  MIC: 0.25 µg/mL (≈ 0.666 µM)
[15]
  MIC: 0.125 µg/mL (≈ 0.333 µM)
Enterococcus hirae [16]
  MBC: 16 µg/mL (≈ 42.6 µM)
Pseudomonas aeruginosa [17]
  MIC: 0.25 µg/mL (≈ 0.666 µM)
Staphylococcus aureus [18]
  MBC: 0.125 µg/mL (≈ 0.333 µM)
Staphylococcus aureus [19]
  MIC: 0.125 µg/mL (≈ 0.333 µM)
Escherichia coli [20]
  MIC: 0.016 µg/mL (≈ 0.0426 µM)
Pseudomonas aeruginosa [21]
  MBC: 0.25 µg/mL (≈ 0.666 µM)
[22]
  MIC: 0.063 µg/mL (≈ 0.168 µM)
Streptococcus pneumoniae [23]
  MBC: 256 µg/mL (≈ 682 µM)
Bacillus spizizenii [24]
  MBC: 0.063 µg/mL (≈ 0.168 µM)
Staphylococcus aureus [25]
  MBC: 0.25 µg/mL (≈ 0.666 µM)
Staphylococcus aureus [26]
  MBC: 0.125 µg/mL (≈ 0.333 µM)
